Assay [1] concerns SCD (HbSS mice), Townes transgenic mouse model. Briefly: Substance P-induced vaso-occlusive crisis (VOC) occurrence and overall survival in Townes transgenic sickle mice. The assay is classed as in vivo. The source says: The Townes transgenic mouse model was utilized for this study (Wu L C et al., Blood 2006; 108:1183-1188). A total of 18 mice were assigned to 3 treatment groups; namely: SCD (HbSS mice) treated with masitinib (SCD Masitinib—intervention group), untreated SCD mice (SCD—positive control group), and WT mice (WT—negative control group).
The HbSS-Townes mouse model was created on a mixed genetic background in which the murine adult α-globin genes were replaced with the human α-globin gene (genotype: Hba hα/hα) and the murine adult β-globin genes were replaced with human sickle βS- and fetal Aγ-globin gene fragments linked together (genotype: Hbb hAγβS/hAγβS) (Nguyen J, et al., Blood 2014; 124(21):4916). HbSS-Townes mice have anemia, a shortened red blood cell half-life of 2.5 days and a severe disease phenotype. Control HbAA-Townes mice were created by replacing the murine globin genes with human α-globin gene (genotype: Hba hα/hα) and linked human βA- and fetal Aγ-globins (genotype: Hbb hAγβA/hAγβA).
Mice were administered freshly prepared solutions of substance P (4 to 40 mg/kg) via intravenous injection.
Mice in the intervention group were administered masitinib at 100 mg/kg/day via gavage for 4 days prior to injection of substance P. […]
Vaso-occlusive crisis (VOC) occurrence and overall survival were analyzed in the mice. […]

Assay [2] deals with lung tissue of SCD (HbSS) Townes mice. As to the kind of experiment: Lung tissue histology (hematoxylin and eosin; anti-FcεRIα immunostaining) of SCD mice after substance P injection. Format: in vivo. The settings on record: masitinib 100 mg/kg/day via gavage for 4 days prior to substance P. As for the experimental part:
The Townes transgenic mouse model was utilized for this study (Wu L C et al., Blood 2006; 108:1183-1188). A total of 18 mice were assigned to 3 treatment groups; namely: SCD (HbSS mice) treated with masitinib (SCD Masitinib—intervention group), untreated SCD mice (SCD—positive control group), and WT mice (WT—negative control group). Mice were administered freshly prepared solutions of substance P (4 to 40 mg/kg) via intravenous injection. Mice in the intervention group were administered masitinib at 100 mg/kg/day via gavage for 4 days prior to injection of substance P. Lung tissue was processed immediately after death by cervical dislocation and fixed in 10% buffered formalin. For analysis of the lung tissue cellular structure, samples were stained with hematoxylin and eosin. For analysis of mast cell infiltration, samples were stained with an anti-FcεRIα primary antibody and a fluorophore secondary antibody. The cause of death was then analyzed. […] Lung tissue sections were stained with hematoxylin and eosin. For immunofluorescence, lung tissue sections were incubated with an anti-FcεRIα primary antibody and then stained with a fluorophore secondary antibody.

This is an account of results in US12472164B2, “Masitinib for the treatment of sickle cell disease” (AB SCIENCE, priority 2019, dated 2025).

`Cc1ccc(NC(=O)c2ccc(CN3CCN(C)CC3)cc2)cc1Nc1nc(-c2cccnc2)cs1` [masitinib, 4-(4-methylpiperazin-1-ylmethyl)-N-[4-methyl-3-(4-pyridin-3ylthiazol-2-ylamino)phenyl]benzamide]: in assay [1] (SCD mice pretreated with masitinib 100 mg/kg/day via gavage for 4 days prior to injection of substance P, 83% of untreated SCD mice died in the first 3 hours (FIG. 1)), the “Overall survival (death)” value was “none died”. Moreover, the “Vaso-occlusive crisis (VOC) occurrence” value in assay [1] (SCD mice pretreated with masitinib 100 mg/kg/day via gavage for 4 days prior to intravenous injection of substance P, all untreated SCD mice experienced VOC) is “did not present any VOC”. Besides, the “Infiltration of lung tissue by FcεRI-positive cells (mast cells)” value in assay [2] (anti-FcεRIα immunofluorescence, versus untreated SCD mice (FIGS. 2A to 2H)) is listed as “to a far lesser degree”. The “Development of acute chest syndrome (ACS)” value in assay [2] (concluded from limited FcεRI-positive cell infiltration and absent or limited edema) is listed as “did not develop ACS”. In assay [2] (hematoxylin and eosin staining, versus untreated SCD mice), the Lung edema entry was “reduced”.
